The results in this text go back to PMC8004798, “Identification of Bioactive Compounds from Marine Natural Products and Exploration of Structure-Activity Relationships (SAR)” (Antibiotics, 2021).

Data set [1] concerns human leukaemia cells (THP-1). As to the kind of experiment: Resazurin cytotoxicity assay, THP-1. An excerpt:
(§1) To identify marine samples with activity against MRSA, 1434 compounds from the AIMS Bioresources Library (provided by the Queensland Compound Library, Brisbane, Australia, now called Compounds Australia) were screened in a resazurin cell viability assay.
Toxicity of AIMS Extract Library. Human alveolar epithelial cells (A549), Madin-Darby canine kidney epithelial cells (MDCK), human leukaemia cells (THP-1), human hepatocellular carcinoma cells (Hep-G2) and human embryonic kidney cells 293 (HEK293) were grown and differentiated in complete RPMI (Roswell Park Memorial Institute Medium) and DMEM (Dulbecco’s Modified Eagle’s medium) tissue culture media (RPMIc and DMEMc, from the Thermo Fisher Scientific, Waltham, MA, USA) by adding 10% FBS, 200 µM L-glutamine and 1 mM HEPES buffer solution. To determine toxicity of the AIMS extract library, 2 × 10^5 of each cell type were added to a 96-well plate and left for 48 h in a humidified 5% CO2 incubator at 37 °C to adhere. […] Then, resazurin (10 μL of 0.05% w/v) was added and after 4 h, fluorescence measured as described previously. The cell viability was calculated as percentage fluorescence relative to untreated cells.
A general note: Resazurin is reduced to fluorescent resorufin, in cell work by metabolically active cells.

A further data set relates to M. tuberculosis H37Rv. In words: Resazurin bacterial inhibition assay (MIC), M. tuberculosis. Type of data set: cell-based. To be noted: Mycobacterium tuberculosis, 168 h, commercial compounds, 7 days, read-out: Minimum Inhibitory Concentration M. tuberculosis H37Rv.
Data set [2] has as its system different test pathogens (MRSA, E. coli, P. aeruginosa, M. tuberculosis). In words: Bacterial inhibition assay (MIC), summary over test pathogens. Type of data set: cell-based. The conditions noted are these: read-out: MICs against MRSA, E. coli and P. aeruginosa. The procedure: For screening of the AIMS library, each test sample (10 µL) was dispensed into a separate well of a 96 well microtiter plates (final sample concentration 0.5 mg mL^−1) using sterile dH2O. […] Bacterial suspension (90 µL, OD600nm 0.001) was added to each well and plates were incubated at 37 °C for either 18 h (MRSA, P. aeruginosa PAO1, E. coli EC958) or 7 days for M. tuberculosis H37Rv as described previously. Resazurin (10 μL; 0.05% w/v) was added and plates were incubated for 3 h or 24 h (M. tuberculosis) at 37 °C. The inhibitory activity was calculated by visual determination of colour change within wells or detection of fluorescence at 590 nm using a FLUOstar Omega microplate reader (BMG Labtech, Ortenberg, Germany). Percentage survival was calculated in comparison to the average of untreated control wells after normalising for background readings.

Another data set concerns P. aeruginosa PAO1. As to the kind of experiment: Resazurin bacterial inhibition assay (MIC), P. aeruginosa. The class given is cell-based. To be noted: Pseudomonas aeruginosa, PAO1; commercial compounds; 18 h, resazurin; read-out: Minimum Inhibitory Concentration P. aeruginosa.
The test system of another data set is E. coli EC958. As to the kind of experiment: Resazurin bacterial inhibition assay (MIC), E. coli. The class given is cell-based. To be noted: Escherichia coli, EC958; commercial compounds; 18 h, resazurin; read-out: Minimum Inhibitory Concentration E. coli.
Data set [3] has as its system methicillin-resistant Staphylococcus aureus (MRSA). In words: Resazurin bacterial inhibition assay (MIC), MRSA. The class given is cell-based. The conditions noted are these: Staphylococcus aureus, MRSA; commercial compounds; 18 h, resazurin; read-out: Minimum Inhibitory Concentration MRSA.
Data set [4] deals with human hepatocellular carcinoma cells (Hep-G2). As to the kind of experiment: Resazurin cytotoxicity assay, HepG2.
Source text: as §1
(§2) Toxicity of AIMS Extract Library. Human alveolar epithelial cells (A549), Madin-Darby canine kidney epithelial cells (MDCK), human leukaemia cells (THP-1), human hepatocellular carcinoma cells (Hep-G2) and human embryonic kidney cells 293 (HEK293) were grown and differentiated in complete RPMI (Roswell Park Memorial Institute Medium) and DMEM (Dulbecco’s Modified Eagle’s medium) tissue culture media (RPMIc and DMEMc, from the Thermo Fisher Scientific, Waltham, MA, USA) by adding 10% FBS, 200 µM L-glutamine and 1 mM HEPES buffer solution. To determine toxicity of the AIMS extract library, 2 × 10^5 of each cell type were added to a 96-well plate and left for 48 h in a humidified 5% CO2 incubator at 37 °C to adhere. Extract samples at a final concentration of 0.5 mg mL^−1 were added to the wells, then the plates incubated for 4 more days in a humidified 5% CO2 incubator at 37 °C. Then, resazurin (10 μL of 0.05% w/v) was added and after 4 h, fluorescence measured as described previously. The cell viability was calculated as percentage fluorescence relative to untreated cells.

Data set [5] has as its system human embryonic kidney cells 293 (HEK293). As to the kind of experiment: Resazurin cytotoxicity assay, HEK 293.
Source text: as §1, §2

For data set [6], the system named is Human alveolar epithelial cells (A549). As to the kind of experiment: Resazurin cytotoxicity assay, A549.
Source text: as §1, §2

The mark [7] stands for this setting: commercial compounds, unit from Table 8 head.

The structures appear in SMILES notation. Converted amounts (≈) assume the structure as drawn.

`CCCCCCN(CCCCCC)CCCCCC` [Trihexylamine]: the “Minimum Toxicity Concentration THP-1” value in [1] (setting [7]) was above 100 µM. The MIC in the data set on M. tuberculosis H37Rv was above 100 µM; in data set [2], 3 to 6.5 µM (≈ 0.809 to 1.75 µg/mL); with P. aeruginosa PAO1, 6.5 µM (≈ 1.75 µg/mL); in the data set on E. coli EC958 it was 3 µM (≈ 0.809 µg/mL); in [3], 3 µM (≈ 0.809 µg/mL). For the same compound, the “Minimum Toxicity Concentration HepG2” value in data set [4] (setting [7]) is above 100 µM. For the same compound, the “Minimum Toxicity Concentration HEK 293” value in [5] (setting [7]) is 50 µM. The “Minimum Toxicity Concentration A549” value in data set [6] (setting [7]) is listed as above 100 µM.
With `CCCCCCN` [Hexylamine], the “Minimum Toxicity Concentration THP-1” value in data set [1] (setting [7]) is reported as above 100 µM. The MIC in the data set with M. tuberculosis H37Rv was above 100 µM; in data set [2], 50 to 100 µM (≈ 5.06 to 10.1 µg/mL); in the data set with P. aeruginosa PAO1 it was 50 µM (≈ 5.06 µg/mL); in the data set with E. coli EC958 it was above 100 µM; in data set [3] it was above 100 µM. The “Minimum Toxicity Concentration HepG2” value in data set [4] (setting [7]) was above 100 µM. Further, the “Minimum Toxicity Concentration HEK 293” value in data set [5] (setting [7]) is above 100 µM. Moreover, the “Minimum Toxicity Concentration A549” value in data set [6] (setting [7]) is recorded as above 100 µM.
`NCc1ccccc1` [Benzylamine]: the “Minimum Toxicity Concentration THP-1” value in data set [1] (human, 4 days) is recorded as above 100 µM. In addition, the MIC (with M. tuberculosis H37Rv; in the data set with P. aeruginosa PAO1; with E. coli EC958; in data set [3]) was above 100 µM each time. Besides, in [4] (human, 4 days), the “Minimum Toxicity Concentration HepG2” value is listed as above 100 µM. Further, the “Minimum Toxicity Concentration HEK 293” value in data set [5] (human, 4 days) is above 100 µM. The “Minimum Toxicity Concentration A549” value in data set [6] (human, 4 days) is on record as above 100 µM.
In the case of `Cc1ccc2ccc3ccc(C)nc3c2n1` [Neocuproine hemihydrate], the “Minimum Toxicity Concentration THP-1” value in data set [1] (setting [7]) is 12 µM. In addition, the MIC stood at 0.1 µM in the data set with M. tuberculosis H37Rv, 0.04 µM with P. aeruginosa PAO1, 0.3 µM in the data set with E. coli EC958 and 0.09 µM in data set [3]. For the same compound, in [4] (setting [7]), the “Minimum Toxicity Concentration HepG2” value was 0.1 µM. In data set [5] (setting [7]), the “Minimum Toxicity Concentration HEK 293” value is reported as 0.1 µM. The “Minimum Toxicity Concentration A549” value in [6] (setting [7]) is 6.2 µM.
As for `c1ccc(CNCc2ccccc2)cc1` [Dibenzylamine], the “Minimum Toxicity Concentration THP-1” value in data set [1] (human, 4 days) was above 100 µM. The MIC in the data set on M. tuberculosis H37Rv is above 100 µM; in the data set on P. aeruginosa PAO1 it was 12.5 µM (≈ 2.47 µg/mL); in the data set on E. coli EC958, above 100 µM; in [3], above 100 µM. In data set [4] (human, 4 days), the “Minimum Toxicity Concentration HepG2” value is reported as above 100 µM. For the same compound, the “Minimum Toxicity Concentration HEK 293” value in data set [5] (human, 4 days) was above 100 µM. For the same compound, the “Minimum Toxicity Concentration A549” value in data set [6] (human, 4 days) was above 100 µM.
In the case of `CCN(CC)CC` [Triethylamine], in [1] (human, 4 days), the “Minimum Toxicity Concentration THP-1” value is given as above 100 µM. The MIC (in the data set on M. tuberculosis H37Rv; in the data set on P. aeruginosa PAO1; in the data set on E. coli EC958; in data set [3]) was above 100 µM in each case. For the same compound, in data set [4] (human, 4 days), the “Minimum Toxicity Concentration HepG2” value is reported as above 100 µM. In data set [5] (human, 4 days), the “Minimum Toxicity Concentration HEK 293” value is above 100 µM. Also, the “Minimum Toxicity Concentration A549” value in data set [6] (human, 4 days) is above 100 µM.
As to `Cc1ccnc2c1ccc1c(C)ccnc12` [4,7-Dimethyl-1,10-Phenanthrolin], the “Minimum Toxicity Concentration THP-1” value in data set [1] (human, 4 days) was 0.1 µM. The MIC was 0.1 µM (≈ 0.0208 µg/mL) in the data set with M. tuberculosis H37Rv, 0.1 µM (≈ 0.0208 µg/mL) in the data set on P. aeruginosa PAO1, 0.3 µM (≈ 0.0625 µg/mL) with E. coli EC958 and 0.3 µM (≈ 0.0625 µg/mL) in [3]. Moreover, in [4] (human, 4 days), the “Minimum Toxicity Concentration HepG2” value was 0.1 µM. The “Minimum Toxicity Concentration HEK 293” value in data set [5] (human, 4 days) is recorded as 0.1 µM. Also, the “Minimum Toxicity Concentration A549” value in [6] (human, 4 days) came to 0.1 µM.
On to `Cc1cnc2c(ccc3c(C)c(C)cnc32)c1C` [3,4,7,8-Tetramethyl-1,10-phenanthroline], for which, in [1] (setting [7]), the “Minimum Toxicity Concentration THP-1” value came out at 0.1 µM. Moreover, the MIC worked out at 0.1 µM (≈ 0.0236 µg/mL) with M. tuberculosis H37Rv, 0.3 µM (≈ 0.0709 µg/mL) with P. aeruginosa PAO1, 0.3 µM (≈ 0.0709 µg/mL) in the data set with E. coli EC958 and 0.3 µM (≈ 0.0709 µg/mL) in data set [3]. For the same compound, the “Minimum Toxicity Concentration HepG2” value in [4] (setting [7]) is recorded as 0.1 µM. Besides, in data set [5] (setting [7]), the “Minimum Toxicity Concentration HEK 293” value was 0.1 µM. In addition, in [6] (setting [7]), the “Minimum Toxicity Concentration A549” value is on record as 0.1 µM.
